We go through 1 substance from patent publication US5795857A, “Mimetic insect pyrokinin analogs for insect control” (The United States of America as represented by the …, priority 1996, dated 1998).

Entries after “also recorded” stand apart in the source; their conditions may differ.

Test [1] deals with isolated cockroach (Leucophaea maderae) hindgut. The experiment in a line: Cockroach myotropic bioassay (isolated hindgut). Format: cell-based. Here is the method:
Leucophaea maderae cockroaches were taken from stock colonies maintained at 27° C. and fed dry dog food ad lib. Cockroach hindguts, free of central nervous system (CNS) tissue, were dissected, immersed in saline, and prepared for recording of myogenic activity as previously described (Holman et al., 1991, ibid). Threshold concentrations were determined for each analogue by adding a known quantity of peptide (dissolved in 0.5 ml bioassay saline) to the bioassay chamber containing the hindgut and observing the response on a Gould 2200S oscillograph recorder. The quantity of the peptide analogues was calculated from the values obtained for Phe and/or Leu in the amino acid analysis. The threshold concentration was defined as the minimum concentration of peptide in the chamber required to evoke an observable change in the frequency (50%) or amplitude of contractions (5%) within 1 min and sustained for 3 min. Threshold concentrations were obtained from five cockroach hindguts on 5 consecutive days for each peptide. Quantitative data for dose-response plots were obtained as previously described (Holman et al., 1991, ibid).

The test system of test [2] is virgin females of Heliothis virescens. Briefly: Pheromonotropic assay (topical application). Format: in vivo. To be noted: for dose approaching 100% maximal response, topical application: 15 minutes following topical application. The procedure: The amphiphilic carboranyl analog Cbe--Thr--Pro--Arg--Leu--NH2 was dissolved in water and solutions at concentrations of 5, 10, 25, 60, and 200 pmol/μl were prepared. The cuticular scales along the lateral side of the abdomen were removed with a 1 ml plastic pipet tip attached to house vacuum with a rubber hose. A low vacuum was applied to the apparatus and the pipet tip was gently passed over the cuticle until the scales were drawn by suction. After the scales were removed, 1 μl of peptide solution was applied to the surface of the cuticle and smoothed evenly over the prepared surface. […]
Pupae of Heliothis virescens were obtained from a laboratory colony maintained at the Insect Attractants Behavior and Basic Biology Research Laboratory, USDA-ARS, Gainesville, Fla. The pupae were separated by sex and the females were held in 4-1 cages. Cages were inspected daily for newly eclosed adults which were transferred to new cages and provided with cotton wicks soaked with a 5% sucrose solution. The insects were held at 25°[…] C. and 65%±3% relative humidity with a 12:12 (L:D) photoperiod. Virgin females were used for bioassays 2 and 3 days after eclosion during the 7th-8th hour of the photophase when little or no pheromone is present in the gland (Teal et al., 1993, Can. Entomol., 153:355-366). The cuticular scales were removed from the lateral side of the abdomen using a plastic pipet tip attached to house vacuum using a rubber hose. A low vacuum was applied and the pipet tip was passed gently over the cuticle until the scales were drawn off by suction. Insects were returned to the incubator for 24 h after the scales were removed for most experiments. However, insects were not given a recovery period in studies in which peptides were applied in DMSO (see below).
In initial studies we used dimethyl sulfoxide (DMSO) as a carrier to deliver Hez--PBAN or [6--Pha--Ala^0 ]Lom--MT--II for topical applications. […] We also assessed different carrier solvents for their ability to deliver these two peptides. Peptides were dissolved at a concentration of 500 pmol/μl in: DMSO, water, or 80% acetonitrile:20% water. Solutions were applied to the descaled abdomen in 1 μl of solvent as above. The insects were allowed to incubate for 1 h prior to excision and extraction of the pheromone gland. Extracts were analyzed for the amount of pheromone as above.
The use of water as a carrier for [6--Pha--Ala^0 ]Lom--MT--II was also assessed in dose response and temporal activity studies. For dose response studies [6--Pha--Ala^0 ]Lom--MT--II was dissolved in water at concentrations of 5, 10, 25, 50, 75, 100, 250, 500, 750 and 1000 pmol/μl. Insects were incubated for 60 min after application of 1 μl of solution to the descaled abdomen. In temporal activity studies a 100 pmol/μl dose was selected. For these experiments insects were incubated for periods of 15, 30, 60, 120, or 180 min after application of 1 μl of solution to the descaled abdomen. The ability of the parent peptide, Lom--MT--II, to stimulate pheromone production when applied topically in water was assessed by applying doses of 50, 100, 250 and 500 pmol to the abdomen. Control treatments for this experiment included insects treated with only water and females treated by topical application of 100 pmol of [6--Pha--Ala^0 ]Lom--MT--II. After incubation the sex pheromone glands were excised, extracted and analyzed for the amount of pheromone.

The mark [3] stands for this setting: isolated hindgut, FIG. 2, listed as carboranyl pseudotetrapeptide.

Turning to Cbe--Thr--Pro--Arg--Leu--NH2, the “potency relative to the 8-mer LPK” value in test [1] (hindgut threshold concentration) turned out to be 10 X. In addition, the “reversibility of myostimulatory response by saline rinse” value in test [1] (isolated hindgut, FIG. 2, listed as carboranyl analog) is “could not be reversed even following repeated saline rinses; also recorded: cannot be reversed even following repeated saline rinses”; in test [1] (setting [3]), “cannot be reversed by one or more saline rinses”. Also, the “period over which myostimulatory activity subsides after rinse” value in test [1] (setting [3]) is given as “about 20 minutes”. Further, the “Threshold Concentration, myostimulation of the isolated cockroach hindgut” value in test [1] (minimum concentration evoking observable change in frequency (50%) or amplitude (5%) of contractions) worked out at 70 pM. Further, the “ED50 (EC50), pheromone production after topical application” value in test [2] (1 μl aqueous solution on lateral abdominal surface, FIG. 4) came out at 25 pmoles/female. Moreover, in test [2] (H. virescens, 1 μl aqueous solution), the “ED50, pheromone production via topical application” value is 25 pmol. Also, the “time after topical application at which pheromone production is elicited” value in test [2] (aqueous solution) is “about 15 minutes”. Also, the “dose approaching 100% maximal response, topical application” value is reported as 60 pmoles/female in test [2] (aqueous solution, listed as carboranyl analog) and “about 60 pmoles/female” in test [2] (aqueous solution, listed as carboranyl peptide). The “Maximal Response via topical application (dose)” value in test [2] (relative to 5 pmoles PBAN via injection) is 60 pmol. Moreover, the “concentration giving maximal pheromone stimulation, topical application” value in test [2] (topically applied) was found to be 60 picomoles/insect.
